Reference: US8258116B2, “Combination therapy for the treatment of HCV infection” (Vertex Pharmaceuticals Incorporated, priority 2007, dated 2012)

How the values were obtained:
[1] = system: HCV NS3 protease variant replicon V36M; assay: microbe, parasite or virus in culture; type: cell-based
Experimental: (§1) Huh-7 cells were propagated in Dulbecco's modified Eagle's medium (DMEM, JRH Biosciences, Lenexa, Kans.) supplemented with 10% heat-inactivated FBS (fetal bovine serum), 2 mM L-glutamine, and nonessential amino acids (JRH). The cells were transfected with an in vitro transcribed HCV replicon RNA identical to replicon 1377neo/NS3-3′/wt as described by Lohmann et al. (1999). Stable cell clones were selected and maintained in the presence of 250 μg/mL G418 (Invitrogen, Carlsbad, Calif.). […] The HCV NS3 protease variant replicons were constructed in the background of the mADE wild-type replicon as described previously [Chao Lin et al., “In Vitro Resistance Studies of Hepatitis C Virus Serine Protease Inhibitors, VX-950 and BILN 2061: Structural Analysis Indicates Different Resistance Mechanisms,” Journal of Biological Chemistry, 279(17); pp. 17508-17514 (2004)]. The replicon cells were propagated in DMEM supplemented with 10% FBS, 2 mM L-glutamine, nonessential amino acids, and 250 μg/mL G418. The cells were split twice per week in fresh media upon reaching confluence. There are approximately 200-300 copies of HCV RNA per 24-2 replicon cell.
(§2) HCV replicon RNA from cells was measured using the Quantigene Discover XL kit (Panomics Inc., Fremont Calif.) as per the manufacturer's instructions. Briefly, compound-treated replicon cells were lysed and immobilized on to capture plates using HCV specific oligonucleotides (designed based on the 5′ UTR region of HCV 1b genome sequence AJ238799 in the GenBank database) over night and the relative amounts of captured RNA was measured using oligonucleotide probe sets as per the manufacturer's instructions.
(§3) On the day prior to the assay, 10,000 replicon cells were plated per well of a 96-well plate and allowed to attach and grow overnight in DMEM (Invitrogen, Carlsbad, Calif.) supplemented with 10% heat-inactivated FBS (JRH Biosciences, Lenexa, Kans.), 2 mM L-glutamine (Invitrogen), nonessential amino acids (Invitrogen) and 250 μg/ml G418 (Invitrogen). Next day, the medium was removed and antiviral agents that were serially diluted in DMEM containing 2% FBS and 0.5% DMSO (Sigma Chemical Co., St. Louis, Mo.) without G418, was added. The replicon cells were incubated with the antiviral agents for 48 h. HCV replicon RNA from cells was measured using the Quantigene Discover XL kit (Panomics Inc., Fremont Calif.) as per the manufacturer's instructions. Briefly, compound-treated replicon cells were lysed and immobilized onto capture plates using HCV specific oligonucleotides overnight and the relative amounts of captured RNA was measured using oligonucleotide probe sets as per the manufacturer's instructions. Unless indicated otherwise, each data point represents the average of three replicates. The IC50 is the concentration of the compound at which the HCV replicon RNA level in cells is reduced by 50% as compared to the untreated replicon cell controls. To monitor the effect of compounds on cell proliferation or cell viability, replicon cells were treated with serially diluted compounds for 48 h, after which cell viability was determined using a CellTiter Glo assay (Promega, Madison, Wis.). Each CC50 is derived from at least two replicates and is the concentration of the compound at which the number of viable cells is reduced by 50% as compared to untreated cell controls. The IC50 and CC50 was determined using 4-parameter curve fitting in the SoftMax Pro program (Molecular Devices, Sunnyvale, Calif.).
(§4) The sensitivity of NS3 protease variants to ribavirin and interferon was assessed in a 2-Day HCV Replicon IC50 Assay.

[2] = system: HCV NS3 protease variant replicon T54A; assay: microbe, parasite or virus in culture; type: cell-based
Experimental: as §1, §2, §3, §4

[3] = system: HCV NS3 protease variant replicon R155K; assay: microbe, parasite or virus in culture; type: cell-based
Experimental: as §1, §2, §3, §4

[4] = system: HCV NS3 protease variant replicon V36M+R155K; assay: microbe, parasite or virus in culture; type: cell-based; details: V36M-R155K; ratio of mutant IC50 to Wild type IC50 for the same inhibitor
Experimental: as §1, §2, §3, §4

[5] = system: HCV NS3 protease variant replicon V36A; assay: microbe, parasite or virus in culture; type: cell-based
Experimental: as §1, §2, §3, §4

[6] = system: HCV NS3 protease variant replicon A156T; assay: 2-Day HCV Replicon IC50 Assay, A156T; type: cell-based
Experimental: as §1, §2, §3, §4

[7] = system: HCV genotype 1; assay: phase 1b trial (Study VX04-950-101); type: in vivo; details: subjects infected with HCV genotype 1, phase 1b
Source text: The degree to which a subject responds to treatment and the rate at which viral rebound is observed could in part be due to genotypic differences in sensitivity to the protease inhibitor. The rapid replication rate of HCV, along with the poor fidelity of its polymerase, gives rise to an accumulation of mutations throughout its genome [P. Simmonds, “Genetic diversity and evolution of hepatitis C virus—15 years on,” J. Gen. Virol., 85, pp. 3173-88 (2004)]. The degree to which sequence variability in the protease region affects the catalytic efficiency of the enzyme or the binding of an inhibitor is not known. Additionally, the generation of numerous viral genomes with remarkable sequence variation presents potential problems of emerging drug resistant virus in subjects treated with antiviral therapy. Indeed, drug resistance against antiviral drugs, such as HIV protease inhibitors, is well documented [Johnson et al., Top. HIV Med., 12, pp. 119-24 (2004)]. […] Agents Chemother., 48, pp. 2260-6 (2004); Trozzi et al., “In vitro selection and characterization of hepatitis C virus serine protease variants resistant to an active-site peptide inhibitor,” J. Virol. 77, pp. 3669-79 (2003)]. […]

[8] = Hepatitis C virus, read-out: Avg. IC50 ± STDEV

With CCC[C@H](NC(=O)[C@@H]1[C@H]2CCC[C@H]2CN1C(=O)[C@@H](NC(=O)[C@@H](NC(=O)c1cnccn1)C1CCCCC1)C(C)(C)C)C(=O)C(=O)NC1CC1 [VX-950] the IC50 [1, 8] was 3.38 ± 0.775 µM, the “Fold Change” value ([1]; V36M, ratio of mutant IC50 to Wild type IC50 for the same inhibitor) was 7.3 ± 1.7 and the IC50 [2, 8] was 3.04 ± 0.819 µM. The “Fold Change” value ([2]; T54A, ratio of mutant IC50 to Wild type IC50 for the same inhibitor) was 6.6 ± 1.8, the IC50 [3, 8] was 3.59 ± 0.283 µM and the “Fold Change” value ([3]; R155K, ratio of mutant IC50 to Wild type IC50 for the same inhibitor) was 7.8 ± 0.6. For the same molecule, the “Fold Change” value [4] was “≧65.2”, the IC50 [5, 8] was 3.57 ± 1.05 µM and the “Fold Change” value ([5]; V36A, ratio of mutant IC50 to Wild type IC50 for the same inhibitor) was 7.7 ± 2.3. For the same molecule, the “Fold Change” value ([6]; A156T, ratio of mutant IC50 to Wild type IC50 for the same inhibitor) was >65.2, the IC50 [6, 8] was > 30 µM and the antiviral activity [7] was “substantial antiviral activity”.
